Series [1] in a line: Solubility in Japanese pharmacopoeia test liquids. It is filed as physicochemical. From the text:
For example, the above pyrimidinedione derivative is a basic drug, and has general characteristics that it is easily soluble on an acid side of a pH but very little soluble on a neutral side or an alkaline side. That is to say, in the digestive organs, the pyrimidinedione derivative is easily dissolved and released in the stomach owing to an acid therein, but the dissolution and the release of the pyrimidinedione derivative deteriorate in the intestines because the intestines are a neutral or an alkaline state. Furthermore, the deterioration of the solubility of the pyrimidinedione derivative with the increase of the pH is remarkable.

Series [2] can be described thus: Oral administration test of the drug, concentration in blood. The text has this:
For example, in Example 18 of Japanese Patent Application Laid-open No. 173873/1991, the pyrimidinedione derivative is sufficiently mixed with lactose and starch, and the resultant mixture is then filled into capsules to manufacture the desired drug. The present inventors actually carried out an oral administration test for the drug.

The structures appear in SMILES notation.

One may read the solubility as the dissolved amount per volume that the medium holds. A low value points to a poorly soluble substance. The term Tmax denotes the time from dosing to the highest level. Take `Cn1c(NCCN(CCO)CCCc2ccc([N+](=O)[O-])cc2)cc(=O)n(C)c1=O` [the pyrimidinedione derivative, 1,3-dimethyl-6-{2-{N-(2-hydroxyethyl)-N-[3-(4-nitrophenyl)propyl]amino}ethylamino}-2,4-(1H,3H)-pyrimidinedione]: the solubility was ≥ 1000 mg/mL in series [1] (jp test liquid no. 1, Japanese pharmacopoeia test liquid No. 1 (pH = 1.2)) and ≤ 0.1 mg/mL in series [1] (jp test liquid no. 2, Japanese pharmacopoeia test liquid No. 2 (pH = 6.8)). Also, the Tmax in series [2] is ≤ 30 min.

Values taken from patent EP0640341A1, “Sustained release pharmaceutical composition and process for producing same” (priority 1993, dated 1995).
